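Compound exposure: 48 hours, 5 concentrations, 96-well plates. GI50 = concentration required for 50% inhibition of growth.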 Active and inactive are the calls of the source. No stated cut-off is given here; in the data, active = GI50 up to about 1.1 µM and inactive = higher.
Tests used:
Experiment in all cases: NCI anticancer screen, dose series, 48 h
SF-295 = system: SF-295
OVCAR-5 = system: OVCAR-5
ACHN = system: ACHN
MOLT-4 = system: MOLT-4
U-251 = system: U-251
UACC-257 = system: UACC-257
NCI-H23 = system: NCI-H23
SK-MEL-5 = system: SK-MEL-5
SF-539 = system: SF-539
MDA-MB-435 = system: MDA-MB-435
SK-OV-3 = system: SK-OV-3
NCI-H460 = system: NCI-H460
COLO 205 = system: COLO 205
MDA-N = system: MDA-N
UO-31 = system: UO-31
786-0 = system: 786-0
NCI-H226 = system: NCI-H226
HOP-62 = system: HOP-62
UACC-62 = system: UACC-62

Measured: GI50

C[C@]1(O)CC[C@H]2[C@@H]3CCc4cc(O)ccc4[C@H]3CC[C@@]21C
active: MOLT-4 0.664 µM | SK-MEL-5 0.391 µM | SF-539 0.356 µM | MDA-MB-435 0.186 µM | MDA-N 0.186 µM
inactive: SF-295 1.48 µM | OVCAR-5 8.02 µM | ACHN 16.6 µM | U-251 4.03 µM | UACC-257 28.2 µM | NCI-H23 3.03 µM | SK-OV-3 89.5 µM | NCI-H460 1.36 µM | COLO 205 7.35 µM | UO-31 8.32 µM | 786-0 6.38 µM

CCOC(=O)C1(CO)CSCCSC1
inactive: SF-295 > 100 µM | ACHN > 100 µM | MOLT-4 > 100 µM | U-251 > 100 µM | UACC-257 > 100 µM | NCI-H23 > 100 µM | SK-MEL-5 > 100 µM | MDA-MB-435 > 100 µM | NCI-H226 > 100 µM | SK-OV-3 > 100 µM | NCI-H460 > 100 µM | COLO 205 > 100 µM | MDA-N > 100 µM | UO-31 > 100 µM

CCOc1ccc(NCC(=O)N2CC(=O)Nc3ccccc32)cc1
inactive: SF-295 > 100 µM | OVCAR-5 > 100 µM | HOP-62 > 100 µM | ACHN > 100 µM | MOLT-4 > 100 µM | U-251 > 100 µM | UACC-62 > 100 µM | UACC-257 > 100 µM | NCI-H23 > 100 µM | SK-MEL-5 > 100 µM | SF-539 > 100 µM | NCI-H226 > 100 µM | SK-OV-3 > 100 µM | NCI-H460 > 100 µM | COLO 205 > 100 µM | UO-31 > 100 µM | 786-0 > 100 µM

C/C(CC(=O)Nc1ccc(Cl)cc1)=N\NC(=O)C[n+]1ccccc1
inactive: SF-295 > 100 µM | OVCAR-5 > 100 µM | HOP-62 > 100 µM | ACHN > 100 µM | MOLT-4 > 100 µM | U-251 > 100 µM | UACC-62 > 100 µM | UACC-257 > 100 µM | NCI-H23 > 100 µM | SK-MEL-5 > 100 µM | SF-539 > 100 µM | NCI-H226 > 100 µM | SK-OV-3 > 100 µM | NCI-H460 > 100 µM | COLO 205 > 100 µM | UO-31 > 100 µM | 786-0 > 100 µM

COc1cc(/C=c2\sc3n(c2=O)C(c2ccc(Cl)cc2)C2=C(CCCC2C)N=3)cc(OC)c1OC (centres undefined)
inactive: OVCAR-5 > 100 µM | HOP-62 > 100 µM | ACHN > 100 µM | MOLT-4 > 100 µM | U-251 > 100 µM | UACC-62 > 100 µM | UACC-257 > 100 µM | SK-MEL-5 83 µM | MDA-MB-435 > 100 µM | SK-OV-3 > 100 µM | MDA-N > 100 µM | UO-31 > 100 µM | 786-0 > 100 µM

c1ccc(CSCCC(SCc2ccccc2)SCc2ccccc2)cc1
inactive: SF-295 > 10 µM | HOP-62 > 10 µM | ACHN > 10 µM | MOLT-4 > 10 µM | U-251 > 10 µM | UACC-62 > 10 µM | UACC-257 > 10 µM | NCI-H23 > 10 µM | SK-MEL-5 > 10 µM | SF-539 > 10 µM | NCI-H226 > 10 µM | SK-OV-3 > 10 µM | NCI-H460 > 10 µM | COLO 205 > 10 µM | MDA-N > 10 µM | UO-31 > 10 µM | 786-0 > 10 µM

CO/N=C(/C)c1cccc(Nc2nc3ccc(Cl)cc3c3[nH]c4ccccc4c23)c1
inactive: SF-295 4.08 µM | OVCAR-5 7.31 µM | HOP-62 11.7 µM | ACHN 3.74 µM | MOLT-4 5.13 µM | U-251 13.6 µM | UACC-62 6.59 µM | UACC-257 14.5 µM | NCI-H23 11.5 µM | SK-MEL-5 3.2 µM | SF-539 15.6 µM | MDA-MB-435 8.57 µM | NCI-H226 12.5 µM | SK-OV-3 21.8 µM | NCI-H460 4.31 µM | COLO 205 5.87 µM | MDA-N 11.8 µM | UO-31 9.46 µM | 786-0 6.79 µM

Cc1cc(NS(=O)(=O)c2ccc(NC(=O)COC(=O)c3cccc4c(=O)c5ccccc5[nH]c34)cc2)no1
inactive: SF-295 > 100 µM | OVCAR-5 > 100 µM | HOP-62 > 100 µM | ACHN > 100 µM | MOLT-4 > 100 µM | U-251 > 100 µM | UACC-62 > 100 µM | UACC-257 > 100 µM | NCI-H23 > 100 µM | SK-MEL-5 > 100 µM | SF-539 > 100 µM | NCI-H226 > 100 µM | SK-OV-3 > 100 µM | NCI-H460 > 100 µM | COLO 205 > 100 µM | UO-31 > 100 µM | 786-0 > 100 µM

Cc1c(C)c2cc3c(=O)c(CCl)coc3c(C)c2oc1=O
inactive: SF-295 > 100 µM | OVCAR-5 > 100 µM | HOP-62 > 100 µM | ACHN > 100 µM | MOLT-4 > 100 µM | U-251 > 100 µM | UACC-62 > 100 µM | UACC-257 > 100 µM | NCI-H23 > 100 µM | SK-MEL-5 > 100 µM | SF-539 > 100 µM | NCI-H226 > 100 µM | SK-OV-3 > 100 µM | NCI-H460 > 100 µM | COLO 205 > 100 µM | UO-31 > 100 µM | 786-0 60.5 µM

COC(=O)C(Cc1nc2ccc(Cl)cc2nc1O)/C(=N/O)C(=O)Nc1cccc(Cl)c1C (centres undefined)
inactive: SF-295 > 100 µM | OVCAR-5 > 100 µM | HOP-62 > 100 µM | ACHN > 100 µM | MOLT-4 > 100 µM | U-251 > 100 µM | UACC-62 > 100 µM | UACC-257 > 100 µM | NCI-H23 > 100 µM | SK-MEL-5 > 100 µM | SF-539 > 100 µM | NCI-H226 > 100 µM | SK-OV-3 > 100 µM | NCI-H460 > 100 µM | COLO 205 > 100 µM | UO-31 > 100 µM | 786-0 > 100 µM

CC(C)(C)C(=O)/C=C(\OB(F)F)C(C)(C)C
inactive: SF-295 > 100 µM | OVCAR-5 > 100 µM | HOP-62 > 100 µM | ACHN > 100 µM | MOLT-4 > 100 µM | U-251 > 100 µM | UACC-257 > 100 µM | NCI-H23 > 100 µM | SK-MEL-5 > 100 µM | SF-539 > 100 µM | MDA-MB-435 > 100 µM | NCI-H226 > 100 µM | SK-OV-3 > 100 µM | NCI-H460 > 100 µM | COLO 205 > 100 µM | MDA-N > 100 µM | UO-31 > 100 µM | 786-0 > 100 µM

O/N=C1/CC2(N3CCOCC3)C3CC/C(=N\O)C2CC1(Cc1ccccc1)C3 (centres undefined)
inactive: SF-295 > 100 µM | OVCAR-5 > 100 µM | HOP-62 > 100 µM | ACHN > 100 µM | MOLT-4 > 100 µM | U-251 > 100 µM | UACC-62 > 100 µM | UACC-257 66.8 µM | NCI-H23 > 100 µM | SK-MEL-5 44.4 µM | SF-539 > 100 µM | MDA-MB-435 > 100 µM | NCI-H226 > 100 µM | SK-OV-3 > 100 µM | NCI-H460 > 100 µM | COLO 205 82 µM | MDA-N > 100 µM | UO-31 > 100 µM | 786-0 > 100 µM

COc1nn(Cc2ccccc2F)c2ccc([N+](=O)[O-])cc12
inactive: OVCAR-5 > 100 µM | HOP-62 18.9 µM | ACHN > 100 µM | MOLT-4 > 20 µM | U-251 > 100 µM | UACC-257 > 50.6 µM | NCI-H23 > 100 µM | SK-MEL-5 > 100 µM | SF-539 41.1 µM | MDA-MB-435 2.74 µM | NCI-H226 > 100 µM | NCI-H460 > 100 µM | COLO 205 > 100 µM | MDA-N 3.4 µM | UO-31 > 100 µM | 786-0 > 100 µM

COc1cc2c(c(OC)c1OC)-c1ccc(SC)c(=O)cc1[C@@H](NCc1ccc(C#N)cc1)CC2
active: SF-295 0.00369 µM | OVCAR-5 0.00736 µM | HOP-62 0.004 µM | ACHN 0.00612 µM | MOLT-4 0.00578 µM | U-251 0.0031 µM | UACC-62 0.00264 µM | UACC-257 0.00671 µM | NCI-H23 0.00274 µM | SK-MEL-5 0.00365 µM | SF-539 0.00252 µM | NCI-H226 0.00391 µM | SK-OV-3 0.0031 µM | NCI-H460 0.00379 µM | COLO 205 0.0035 µM | UO-31 0.0764 µM | 786-0 0.00528 µM

O=C1CC(c2ccc(Cl)cc2)Oc2ccccc21 (centres undefined)
inactive: SF-295 24.4 µM | HOP-62 19.6 µM | ACHN 36.1 µM | U-251 31.8 µM | UACC-62 20.6 µM | UACC-257 40.3 µM | NCI-H23 15.2 µM | SK-MEL-5 14 µM | SF-539 13.4 µM | MDA-MB-435 36.8 µM | NCI-H226 4.75 µM | SK-OV-3 19.4 µM | NCI-H460 19.8 µM | COLO 205 27 µM | UO-31 18.1 µM | 786-0 16.3 µM

Nc1ncc(Cc2ccc3c(c2)OCO3)c(N)n1
inactive: SF-295 > 100 µM | OVCAR-5 > 100 µM | HOP-62 > 100 µM | ACHN > 100 µM | MOLT-4 > 100 µM | U-251 > 100 µM | UACC-62 > 100 µM | UACC-257 > 100 µM | NCI-H23 > 100 µM | SK-MEL-5 > 100 µM | SF-539 > 100 µM | MDA-MB-435 > 100 µM | NCI-H226 > 100 µM | SK-OV-3 > 100 µM | NCI-H460 > 100 µM | COLO 205 > 100 µM | MDA-N > 100 µM | UO-31 > 100 µM | 786-0 > 100 µM
